Measured values taken from patent US8822494B2 (Pfizer Inc., priority 2012, dated 2014).
Like-named read-outs stand apart in the source and are kept apart here.

Experiments:
Human D1 [1] = target: T1, Human D1 (Homo sapiens (Human), UniProt P21728); assay: Human D1 Receptor Binding Assay ([3H]-SCH23390 competition); settings: read-out: Human D1 Receptor Binding, Ki (μM); Geometric mean of 2-3 determinations; over-expressing LTK human cell lines, 0.5 nM [3H]-SCH23390, 30 min at 37° C.; footnote b = single determination, c = geometric mean of ≧4 determinations
Procedure: D1 binding assays were performed using over-expressing LTK human cell lines. […] These ligand and tissue concentrations were used in time course studies to determine linearity and equilibrium conditions for binding. […] The pellet was resuspended in assay buffer [50 mM Tris (pH 7.4@ RT) containing 4 mM MgSO4 and 0.5 mM EDTA]. […] Non-specific binding was determined by radioligand binding in the presence of a saturating concentration of (+)-Butaclamol (10 μM), a D1 antagonist. After a 30 minute incubation period at 37° C., assay samples were rapidly filtered through Unifilter-96 GF/B PEI-coated filter plates and rinsed with 50 mM Tris buffer (pH 7.4 at 4° C.). […] Ki values were calculated according to the Cheng-Prusoff equation: […]

Human D1 [2] = target: T1, Human D1; assay: D1 cAMP HTRF Assay; assay type: cell-based; settings: HEK293T/hD1#1 stable cell line, 30 min at room temperature, footnote a = geometric mean of ≧7 determinations
Source text: This assay was used to determine the ability of a test compound to agonize (including partially agonize) D1. A Mab anti-cAMP labeled Cryptate visualizes the tracer. […] The signal, therefore, is inversely proportional to the concentration of cAMP in the sample.
The cAMP Dynamic kit was obtained from Cisbio International (Cisbio 62AM4PEJ). Multidrop Combi (Thermo Scientific) was used for assay additions. An EnVision (PerkinElmer) reader was used to read HTRF.
A HEK293T/hD1#1 stable cell line was constructed internally (Pfizer Ann Arbor).
Media was removed and cell pellet was re-suspended in PBS/[…] generating 2e5 cells/mL. […] Working solutions of cAMP-D2 and anti-cAMP-cryptate were prepared according to Cisbio instructions. […] The assay plate was incubated for 1 hour at room temperature. The assay plate was read on an EnVision plate reader using Cisbio recommended settings.
Data analysis was done using computer software. Percent effects were calculated from the compound controls. Ratio EC50 was determined using the raw ratio data from the EnVision reader. The cAMP standard curve was used in an analysis program to determine cAMP concentrations from raw ratio data. cAMP EC50 was determined using the calculated cAMP data.

[3] = read-out: Human D1 cAMP HTRF, EC50 (μM), Geometric mean of 2-6 determinations

T1 sequence (P21728 whole entry): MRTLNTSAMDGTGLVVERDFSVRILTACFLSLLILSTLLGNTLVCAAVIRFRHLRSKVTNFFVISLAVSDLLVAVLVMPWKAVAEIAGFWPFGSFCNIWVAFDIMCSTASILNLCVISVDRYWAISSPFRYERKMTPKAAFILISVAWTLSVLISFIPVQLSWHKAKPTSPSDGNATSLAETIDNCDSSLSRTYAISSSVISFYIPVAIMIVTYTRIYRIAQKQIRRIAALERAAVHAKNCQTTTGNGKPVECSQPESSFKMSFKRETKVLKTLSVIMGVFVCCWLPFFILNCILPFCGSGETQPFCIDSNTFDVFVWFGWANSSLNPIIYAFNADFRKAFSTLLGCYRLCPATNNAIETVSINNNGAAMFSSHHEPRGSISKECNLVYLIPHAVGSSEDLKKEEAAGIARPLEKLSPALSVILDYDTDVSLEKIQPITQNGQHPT

| Compound | Ki (Human D1 [1]) | EC50 (Human D1 [2]) | EC50 (Human D1 [2]; [3]) |
| --- | --- | --- | --- |
| Cc1ncnc(C)c1-c1ccc(Oc2nccc3[nH]ncc23)cc1F [Example 32, 4-[4-(4,6-dimethylpyrimidin-5-yl)-3-fluorophenoxy]-1H-pyrazolo[4,3-c]pyridine] | 0.0723 µM | 0.903 µM |  |
| Cc1ncnc(C)c1-c1ccc(Oc2nccc3[nH]ccc23)cc1C#N [Example 21, 2-(4,6-dimethylpyrimidin-5-yl)-5-(1H-pyrrolo[3,2-c]pyridin-4-yloxy)benzonitrile] | 0.102 µM | 0.247 µM |  |
| Cc1ncnc(C)c1-c1ccc(Oc2nccc3[nH]ccc23)cc1Cl [Example 24, 4-[3-chloro-4-(4,6-dimethylpyrimidin-5-yl)phenoxy]-1H-pyrrolo[3,2-c]pyridine] | 0.00984 µM | 0.102 µM |  |
| Cc1n[nH]c(=O)c(C)c1-c1ccc(Oc2nccc3[nH]nc(C)c23)cc1 [Example 45, 4,6-dimethyl-5-{4-[(3-methyl-1H-pyrazolo[4,3-c]pyridin-4-yl)oxy]phenyl}pyridazin-3(2H)-one] | 0.0103 µM | 0.0663 µM |  |
| Cc1cc(Oc2nccc3n[nH]cc23)ccc1-c1c(C)n[nH]c(=O)c1C (single isomer, unassigned) [Example 3, (+)-4,6-dimethyl-5-[2-methyl-4-(1H-pyrazolo[4,3-c]pyridin-4-yloxy)phenyl]pyridazin-3(2H)-one] | 0.00976 µM | 0.0151 µM |  |
| Cc1cc(Oc2nccc3[nH]ncc23)ccc1-c1cc(=O)[nH]nc1C [Example 31, 6-methyl-5-[2-methyl-4-(1H-pyrazolo[4,3-c]pyridin-4-yloxy)phenyl]pyridazin-3(2H)-one] | 0.287 µM | 0.548 µM |  |
| Cc1cc(Oc2nccc3[nH]ccc23)ccc1-c1cc(=O)[nH]nc1C [Example 29, 6-methyl-5-[2-methyl-4-(1H-pyrrolo[3,2-c]pyridin-4-yloxy)phenyl]pyridazin-3(2H)-one] | 0.0679 µM | 0.119 µM |  |
| Cc1ncc2nccn2c1-c1ccc(Oc2nccc3[nH]ccc23)cc1 [Example 19, 6-methyl-5-[4-(1H-pyrrolo[3,2-c]pyridin-4-yloxy)phenyl]imidazo[1,2-a]pyrazine] | 0.0159 µM | 0.464 µM |  |
| COc1cnc(Oc2ccc(-c3c(C)n[nH]c(=O)c3C)cc2)c2cn[nH]c12 [Example 47, 5-{4-[(7-methoxy-1H-pyrazolo[4,3-c]pyridin-4-yl)oxy]phenyl}-4,6-dimethylpyridazin-3(2H)-one] | 0.695 µM | 1.3 µM |  |
| Cc1cc(Oc2nccc3[nH]ccc23)ccc1-c1c(C)n[nH]c(=O)c1C (single isomer, unassigned; ent-2) [Example 10, 4,6-dimethyl-5-[2-methyl-4-(1H-pyrrolo[3,2-c]pyridin-4-yloxy)phenyl]pyridazin-3(2H)-one, ENT-2] | 0.00504 µM |  | 0.00431 µM |
| Cc1ncnc(N2CC(F)C2)c1-c1ccc(Oc2nccc3[nH]ccc23)cc1F [Example 25, 4-{3-fluoro-4-[4-(3-fluoroazetidin-1-yl)-6-methylpyrimidin-5-yl]phenoxy}-1H-pyrrolo[3,2-c]pyridine] | 0.00509 µM | 0.156 µM |  |
| Cc1cc(Oc2nccc3[nH]ccc23)ccc1-c1cn[nH]c(=O)c1C [Example 28, 4-methyl-5-[2-methyl-4-(1H-pyrrolo[3,2-c]pyridin-4-yloxy)phenyl]pyridazin-3(2H)-one] | 0.0357 µM | 0.0549 µM |  |
| COc1cc(Oc2nccc3[nH]ncc23)ccc1-c1c(C)ncnc1C [Example 33, 4-[4-(4,6-dimethylpyrimidin-5-yl)-3-methoxyphenoxy]-1H-pyrazolo[4,3-c]pyridine] | 0.124 µM | 2.08 µM |  |
| Cc1ncnc(C)c1-c1ccc(Oc2nccc3[nH]ccc23)cc1 [Example 20, 4-[4-(4,6-dimethylpyrimidin-5-yl)phenoxy]-1H-pyrrolo[3,2-c]pyridine] | 0.0443 µM | 0.238 µM |  |
| Cc1ncnc(C)c1-c1ccc(Oc2nccc3[nH]ccc23)c(F)c1F [Example 23, 4-[4-(4,6-dimethylpyrimidin-5-yl)-2,3-difluorophenoxy]-1H-pyrrolo[3,2-c]pyridine] | 0.0538 µM | 0.59 µM |  |
| Cc1cc(Oc2nccc3[nH]ccc23)ccc1-c1c(C)n[nH]c(=O)c1C (single isomer, unassigned; ent-1) [Example 9, 4,6-dimethyl-5-[2-methyl-4-(1H-pyrrolo[3,2-c]pyridin-4-yloxy)phenyl]pyridazin-3(2H)-one, ENT-1] | 0.00487 µM |  | 0.00733 µM |

| Compound | Ki (Human D1 [1]) | EC50 (Human D1 [2]) | EC50 (Human D1 [2]; [3]) |
| --- | --- | --- | --- |
| Cc1ncnc(C)c1-c1ccc(Oc2nccc3[nH]ncc23)cc1C#N [Example 34, 2-(4,6-dimethylpyrimidin-5-yl)-5-(1H-pyrazolo[4,3-c]pyridin-4-yloxy)benzonitrile] | 0.391 µM | 2.38 µM |  |
| Cc1cc(Oc2nccc3[nH]ccc23)ccc1-c1c(C)cnnc1C (single isomer, unassigned; ent-2) [Example 12, 4-[4-(3,5-dimethylpyridazin-4-yl)-3-methylphenoxy]-1H-pyrrolo[3,2-c]pyridine, ENT-2] | 0.0883 µM |  | 0.52 µM |
| Cc1cc(Oc2nccc3n[nH]cc23)ccc1-c1c(C)ncc(=O)n1C (single isomer, unassigned) [Example 39, (−)-1,5-dimethyl-6-[2-methyl-4-(1H-pyrazolo[4,3-c]pyridin-4-yloxy)phenyl]pyrazin-2(1H)-one] | 0.0418 µM | 0.168 µM |  |
| Cc1ncnc(C)c1-c1ccc(Oc2nccc3[nH]ncc23)cc1 [Example 38, 4-[4-(4,6-dimethylpyrimidin-5-yl)phenoxy]-1H-pyrazolo[4,3-c]pyridine] | 0.129 µM | 2.52 µM |  |
| Cc1c(-c2ccc(Oc3nccc4[nH]ncc34)cc2)n(C)c(=O)[nH]c1=O [Example 43, 1,5-dimethyl-6-[4-(1H-pyrazolo[4,3-c]pyridin-4-yloxy)phenyl]pyrimidine-2,4(1H,3H)-dione] | 0.0175 µM | 0.0282 µM |  |
| Cc1cc(Oc2nccc3[nH]ccc23)ccc1-c1c(C)ncc(=O)n1C (single isomer, unassigned) [Example 26, (−)-1,5-dimethyl-6-[2-methyl-4-(1H-pyrrolo[3,2-c]pyridin-4-yloxy)phenyl]pyrazin-2(1H)-one] | 0.00456 µM | 0.073 µM |  |
| Cc1ncnc(C#N)c1-c1ccc(Oc2nccc3[nH]ccc23)cc1F [Example 16, 5-[2-fluoro-4-(1H-pyrrolo[3,2-c]pyridin-4-yloxy)phenyl]-6-methylpyrimidine-4-carbonitrile] | 0.0283 µM | 0.396 µM |  |
| Cc1ncc2nccn2c1-c1ccc(Oc2nccc3[nH]ccc23)cc1F [Example 18, 5-[2-fluoro-4-(1H-pyrrolo[3,2-c]pyridin-4-yloxy)phenyl]-6-methylimidazo[1,2-a]pyrazine] | 0.0294 µM | 0.141 µM |  |
| Cc1cc(Oc2nccc3[nH]ncc23)ccc1-c1c(C)ncnc1C [Example 6, 4-[4-(4,6-dimethylpyrimidin-5-yl)-3-methylphenoxy]-1H-pyrazolo[4,3-c]pyridine] | 0.113 µM | 0.568 µM |  |
| Cc1cc(Oc2nccc3[nH]ncc23)c(F)cc1-c1c(C)ncnc1C [Example 36, 4-[4-(4,6-dimethylpyrimidin-5-yl)-2-fluoro-5-methylphenoxy]-1H-pyrazolo[4,3-c]pyridine] | 0.118 µM | 0.733 µM |  |
| Cc1cc(Oc2nccc3[nH]cc(C#N)c23)ccc1-c1c(C)ncnc1C [Example 44, 4-[4-(4,6-dimethylpyrimidin-5-yl)-3-methylphenoxy]-1H-pyrrolo[3,2-c]pyridine-3-carbonitrile] | 0.0046 µM | 0.0553 µM |  |
| Cc1cc(Oc2nccc3[nH]ccc23)ccc1-c1cncc2nccn12 [Example 15, 5-[2-methyl-4-(1H-pyrrolo[3,2-c]pyridin-4-yloxy)phenyl]imidazo[1,2-a]pyrazine] | 0.0975 µM | 0.417 µM |  |
| Cc1cc(Oc2nccc3[nH]ccc23)ccc1-c1c(C)ncnc1C#N [Example 17, 6-methyl-5-[2-methyl-4-(1H-pyrrolo[3,2-c]pyridin-4-yloxy)phenyl]pyrimidine-4-carbonitrile] | 0.0392 µM | 0.374 µM |  |
| Cc1cc(Oc2nccc3[nH]ccc23)ccc1-c1c(C)ncc2nccn12 [Example 14, 6-methyl-5-[2-methyl-4-(1H-pyrrolo[3,2-c]pyridin-4-yloxy)phenyl]imidazo[1,2-a]pyrazine] | 0.00798 µM | 0.137 µM |  |
| Cc1cc(Oc2nccc3[nH]ccc23)ccc1-c1c(C)ncc(=O)n1C (single isomer, unassigned) [Example 27, (+)-1,5-dimethyl-6-[2-methyl-4-(1H-pyrrolo[3,2-c]pyridin-4-yloxy)phenyl]pyrazin-2(1H)-one] | 0.0106 µM | 0.0646 µM |  |
